Measurements taken from ChEMBL document CHEMBL4627384, “l-Thyroxin and the Nonclassical Thyroid Hormone TETRAC Are Potent Activators of PPARγ” (J Med Chem, 2020).
Activity calls are given as the source filed them. The calls are words filed in the database; no cut-off is given here.

What was measured:
[1] = molecular target: T1, Peroxisome proliferator-activated receptor gamma (Homo sapiens) (UniProt P37231); assay: Agonist activity at recombinant human pFA-CMV fused PPARgamma LBD expressed in HEK293T cells transfected with pFR-luciferase plasmid and pRL-SV40 plasmid at 15 uM incubated for 14 to 16 hrs in presence of PPARgamma antagonist GW9662 by dual glo luciferase reporter gene assay; format: cell-based; conditions: HEK-293T
T1 sequence (whole entry): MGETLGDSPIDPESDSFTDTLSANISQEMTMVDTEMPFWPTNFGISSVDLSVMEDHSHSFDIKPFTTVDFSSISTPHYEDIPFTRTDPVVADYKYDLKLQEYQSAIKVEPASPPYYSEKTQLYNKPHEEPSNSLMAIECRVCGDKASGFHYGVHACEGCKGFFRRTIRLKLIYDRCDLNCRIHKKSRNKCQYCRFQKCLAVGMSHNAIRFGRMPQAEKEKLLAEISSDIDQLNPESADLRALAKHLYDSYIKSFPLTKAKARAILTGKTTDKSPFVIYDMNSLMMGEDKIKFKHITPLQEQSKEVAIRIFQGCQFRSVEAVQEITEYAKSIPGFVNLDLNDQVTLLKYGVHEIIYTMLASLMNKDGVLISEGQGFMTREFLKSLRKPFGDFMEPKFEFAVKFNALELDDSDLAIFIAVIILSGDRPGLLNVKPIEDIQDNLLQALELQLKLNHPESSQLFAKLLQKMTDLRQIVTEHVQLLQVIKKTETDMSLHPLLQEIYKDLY

[2] = molecular target: T1, Peroxisome proliferator-activated receptor gamma (Homo sapiens); assay: Agonist activity at PPARgamma in human HepG2 cells assessed as induction of CD36 mRNA expression at 30 uM incubated for 8 hrs in presence of PPARgamma antagonist GW9662 by qPCR analysis; format: cell-based
[3] = molecular target: T1, Peroxisome proliferator-activated receptor gamma (Homo sapiens); assay: Agonist activity at PPARgamma in human HepG2 cells with THRB knockdown assessed as induction of CD36 expression at 30 uM incubated for 8 hrs in by Western blot analysis; format: cell-based
[4] = Drug metabolism in human HepG2 cells assessed as 2-(4-(4-hydroxy-3,5-diiodophenoxy)-3,5-diiodophenyl)acetic acid formation at 10 uM incubated for 24 hrs by LC-MS analysis; format: ADME, cell-based; conditions: hepg2, 24 h
[5] = molecular target: T1, Peroxisome proliferator-activated receptor gamma (Homo sapiens); assay: Agonist activity at PPARgamma in human HepG2 cells without THRA knockdown assessed as induction of CD36 expression at 1 uM incubated for 8 hrs in by Western blot analysis; format: cell-based
[6] = molecular target: T1, Peroxisome proliferator-activated receptor gamma (Homo sapiens); assay: Agonist activity at N-terminal GFP-fused PPARgamma LBD (unknown origin) assessed as biotin-labeled CBP recruitment incubated for 2 hrs by HT-FRET assay relative to rosiglitazone
Homo sapiens = organism: Homo sapiens; assay: Agonist activity at PPARgamma LBD (unknown origin)/GFP-tagged RXRalpha mutant (unknown origin) assessed as biotin-labeled CBP recruitment to […]:RXRalpha mutant fusion protein heterodimer incubated for 2 hrs by HT-FRET assay
[7] = molecular target: RXR alpha/PPAR gamma (Homo sapiens) (UniProt P37231+P19793); assay: Agonist activity at recombinant human pFA-CMV fused PPARgamma LBD transfected in HEK293T cells/human pFA-CMV fused RXRalpha LBD transfected in HEK293T cells assessed as increase in reporter activation at 0.1 to 3 uM incubated for 14 to 16 hrs using […]:RXRalpha LBD at ratio of 4:1 to 1:1 by dual glo luciferase reporter gene assay relative to rosiglitazone; format: cell-based; conditions: HEK-293T
[8] = molecular target: T2, Peroxisome proliferator-activated receptor gamma (Mus musculus) (UniProt P37238); assay: Agonist activity at PPARgamma in mouse 3T3L1 adipocytes assessed as induction of FABP4 mRNA expression at 1 uM by qRT-PCR analysis; format: cell-based; conditions: 3T3-L1
T2 sequence (whole entry): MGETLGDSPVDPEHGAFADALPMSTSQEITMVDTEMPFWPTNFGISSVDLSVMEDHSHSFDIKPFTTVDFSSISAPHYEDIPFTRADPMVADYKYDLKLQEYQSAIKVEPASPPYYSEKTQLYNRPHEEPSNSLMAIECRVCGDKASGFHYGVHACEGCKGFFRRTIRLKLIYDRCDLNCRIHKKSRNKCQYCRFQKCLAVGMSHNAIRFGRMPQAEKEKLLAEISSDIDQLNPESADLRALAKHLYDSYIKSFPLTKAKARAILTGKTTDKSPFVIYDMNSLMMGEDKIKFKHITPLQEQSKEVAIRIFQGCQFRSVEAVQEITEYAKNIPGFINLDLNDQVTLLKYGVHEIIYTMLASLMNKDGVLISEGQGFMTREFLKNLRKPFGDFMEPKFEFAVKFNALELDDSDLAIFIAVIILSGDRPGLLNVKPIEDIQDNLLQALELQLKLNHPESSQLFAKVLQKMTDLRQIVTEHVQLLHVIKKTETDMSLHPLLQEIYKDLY

[9] = molecular target: T1, Peroxisome proliferator-activated receptor gamma (Homo sapiens); assay: Agonist activity at PPARgamma in human HepG2 cells with THRA knockdown assessed as induction of CD36 expression at 1 uM incubated for 8 hrs in by Western blot analysis; format: cell-based
[10] = molecular target: T1, Peroxisome proliferator-activated receptor gamma (Homo sapiens); assay: Agonist activity at PPARgamma in human HepG2 cells with THRB knockdown assessed as induction of CD36 expression at 1 uM incubated for 8 hrs in by Western blot analysis; format: cell-based
[11] = molecular target: T3, Thyroid hormone receptor alpha (Homo sapiens, UniProt P10827); assay: Agonist activity at THRalpha (unknown origin) incubated for 14 to 16 hrs by dual glo luciferase reporter gene assay
T3 sequence (P10827 whole entry): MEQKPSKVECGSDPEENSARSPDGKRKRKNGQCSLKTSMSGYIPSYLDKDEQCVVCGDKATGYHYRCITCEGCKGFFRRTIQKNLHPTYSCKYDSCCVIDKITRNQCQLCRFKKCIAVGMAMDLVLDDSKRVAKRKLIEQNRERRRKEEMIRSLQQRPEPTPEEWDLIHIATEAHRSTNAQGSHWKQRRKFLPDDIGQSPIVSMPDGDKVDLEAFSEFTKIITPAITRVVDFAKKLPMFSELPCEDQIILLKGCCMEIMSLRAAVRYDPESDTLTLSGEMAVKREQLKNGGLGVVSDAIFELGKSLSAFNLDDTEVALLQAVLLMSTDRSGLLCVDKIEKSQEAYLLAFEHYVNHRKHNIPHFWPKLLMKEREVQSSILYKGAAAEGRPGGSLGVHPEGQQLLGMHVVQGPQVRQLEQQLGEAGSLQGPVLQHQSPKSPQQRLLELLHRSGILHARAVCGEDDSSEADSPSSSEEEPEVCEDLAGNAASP

[12] = Drug level in human serum by RIA; format: ADME, cell-free; conditions: read-out: Drug uptake

SMILES	Activity [1]	Activity [2]	Activity [3]	Drug metabolism [4] [ng]	Activity [5]	Activity [6]	Activity (Homo sapiens)	Activity [7]	Activity [8]	Activity [9]	Activity [10]	EC50 [11] [nM]	concentration [12] [nM]
N[C@@H](Cc1cc(I)c(Oc2cc(I)c(O)c(I)c2)c(I)c1)C(=O)O [LEVOTHYROXINE]	inactive	inactive	Active	44									
O=C(O)Cc1cc(I)c(Oc2cc(I)c(O)c(I)c2)c(I)c1 [TETRAC]					Active	Active	Active	Active	Active	Active	Active	20	1.6
